Experimental data published in article PMC6510928, “Characterisation of the Ral GTPase inhibitor RBC8 in human and mouse platelets” (Cellular Signalling, 2019).
pIC50: −log10 of the molar value.

Assays:
RalB = target: T1, RalB (Homo sapiens, UniProt P11234); assay: GST-RalBP1 pulldown of RalB-GTP from RBC8-treated, CRP-stimulated human platelets, immunoblot densitometry; format: cell-based
T1 sequence (P11234 1-203): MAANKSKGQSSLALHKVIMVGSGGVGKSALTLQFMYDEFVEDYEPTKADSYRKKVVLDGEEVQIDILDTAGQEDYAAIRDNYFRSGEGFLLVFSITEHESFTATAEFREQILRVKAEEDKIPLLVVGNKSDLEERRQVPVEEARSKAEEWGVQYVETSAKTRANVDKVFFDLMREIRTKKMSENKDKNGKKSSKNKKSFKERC

RalA = target: T2, RalA (Homo sapiens, UniProt P11233); assay: GST-RalBP1 pulldown of RalA-GTP from RBC8-treated, CRP-stimulated human platelets, immunoblot densitometry; format: cell-based
T2 sequence (P11233 1-203): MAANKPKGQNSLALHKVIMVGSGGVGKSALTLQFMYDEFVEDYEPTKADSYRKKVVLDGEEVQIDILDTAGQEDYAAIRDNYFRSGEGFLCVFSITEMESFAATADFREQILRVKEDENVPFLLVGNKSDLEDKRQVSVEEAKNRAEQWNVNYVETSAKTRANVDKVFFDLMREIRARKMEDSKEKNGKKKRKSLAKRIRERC

- pIC50 (RalB): 5.64
- pIC50 (RalA): 5.66
Structure (SMILES): COc1ccc(OC)c(C2C(C#N)=C(N)Oc3n[nH]c(-c4ccc5ccccc5c4)c32)c1 (centres unmarked) [RBC8]
